Laboratory results reported in US20090226455A1, “COMBINATION THERAPY WITH C-MET AND HER ANTAGONISTS” (Genentech, Inc., priority 2008, published 2009).

Legend:
EBC-1 shMet-4.5 tumors = assay: EBC-1 shMet-4.5 NSCLC xenograft model, tumor growth inhibition; type: in vivo, nude mice (nu/nu); conditions: compared to sucrose control at day 29; pertuzumab 5 mg/kg IP once a week; Dox 1 mg/mL in 5% sucrose drinking water (induces c-met shRNA knockdown)
Protocol: Control antibodies mouse IgG2a isotype 10D9-1E11-1F12 (anti-Ragweed) antibody and the human IgG1 isotype hu5B6 (anti-gD) antibody were obtained from the Antibody Engineering Department at Genentech, Inc., in a clear liquid form and were diluted in 1×PBS. Doxycycline (Dox) was prepared fresh at 0.5 or 1 mg/mL in 5% sucrose water and was regularly exchanged every 3 days. In Dox studies, control animals were given 5% sucrose water that was exchanged every 3 days. Materials were stored in a refrigerator set to maintain a temperature range of 4° C. to 8° C. […]
To prepare cells for inoculation into mice, cells were trypsinized, washed with ten milliliters of sterile 1× phosphate buffered saline (PBS). A subset of cells was counted by trypan blue exclusion and the remainder of cells was resuspended in 100 μl of sterile 1× PBS to a concentration of 5×10^7 cells per milliliter. […] Tumors were monitored until they reached a mean volume of 200 mm^3.
Mice in Group 1 were treated with anti-Ragweed control antibody (5 mg/kg, IP, once a week for 5 weeks) and given 5% sucrose drinking water. […] Tumor volumes were monitored through day 29. […]
Tumor inhibition was plotted using KaleidaGraph 3.6 (Synergy Software; Reading, Pa.). Percent growth inhibition (% Inh) was calculated as follows: […]
Tumor incidence was determined by the number of measurable tumors in each group at the end of study. […]

advanced ovarian cancer = conditions: 3 subjects with advanced ovarian cancer treated; one subject; cited from earlier work

## C[C@H]1c2cccc(O)c2C(=O)C2=C(O)[C@]3(O)C(=O)C(C(N)=O)=C(O)[C@@H](N(C)C)[C@@H]3[C@@H](O)[C@@H]21 [Dox, Doxycycline, reference compound]
EBC-1 shMet-4.5 tumors
  tumor inhibition (reduction in tumor growth): 54%

## pertuzumab: humanized antibody that inhibits the dimerization of HER2 with other HER receptors; light and heavy chain SEQ ID NOs 15 and 16
EBC-1 shMet-4.5 tumors
  tumor inhibition (reduction in tumor growth): 43.6%
Advanced ovarian cancer
  clinical response: durable partial response
